Experiment [1] can be described thus: Luminescence Cell-Based Dose Retest to Confirm Inhibitors of Cancer Stem Cells. [Related pubchem assays (depositor defined):AID2717, AID2721]. Format: functional. The settings on record: Homo sapiens.
A short description of experiment [2]: cytotoxicity in HMLE control line with eGFP shRNA, dose response, counter-screen for HMLE_sh_ECad selective toxicity project, cell-based, HMLE_sh_eGFP, luminescence (AID 463074).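 Further: HMLE human mammary epithelial cells expressing control shRNA against eGFP.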 Type of experiment: functional, Homo sapiens.
Experiment [3] can be described thus: cytotoxicity toward DRD oncogenic fibroblasts, dose response, cell-based, non-viral oncogenic, luminescence (AID 1934). Type of experiment: functional. The settings on record: Homo sapiens.
Experiment [4] relates to BJ. As to the kind of experiment: cells. The note with it: Homo sapiens. Format: functional, cell-based.
Experiment [5] deals with BJ. Nature of the experiment: cytotoxicity toward BJ-TERT fibroblasts, dose response, cell-based, RAS-independent, luminescence (AID 1933). Format: functional. The settings on record: Homo sapiens.
Experiment [6] deals with BJ. As to the kind of experiment: cytotoxicity toward Ras-transformed BJeLR fibroblasts, dose response, cell-based, alamar blue fluorescence, cherrypicked samples (AID 2631).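 Further: confirmatory dose-response assay in RAS-dependent BJ fibroblasts engineered with TERT, LT and ST, with cytotoxicity read by fluorescence.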 Format: functional. The settings on record: Homo sapiens. In general terms: Resazurin is reduced to fluorescent resorufin, in cell work by metabolically active cells.
Experiment [7] is described as follows: cytotoxicity in HEK-293T cells, dose response, cytotoxicity control for TCR NF-kB inhibitor project, luminescence, T-cell screen hits (AID 489026).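 Further: cells exposed to compound about 14 hours before the viability readout.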 Type of experiment: functional, cell-based.
Experiment [8] is described as follows: HepG2 cell cytotoxicity, dose response, cytotoxicity control, plate reader, cherry-pick, antagonist series (AID 743416). Type of experiment: functional, cell-based.
A short description of experiment [9]: HEK293 cell cytotoxicity, dose response, cytotoxicity control, plate reader, cherry-picked samples (AID 743446). Format: functional, cell-based.
Experiment [10] in a line: Shn3 3'UTR reporter inhibitors, dose response, cell-based, Clone20 osteoblasts, firefly luciferase, cherry-picked (AID 624132).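 Further: firefly luciferase luminescence from reporter carrying the Shn3 3'UTR in osteoblasts.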 Type of experiment: functional.
Experiment [11] is described as follows: LGR2 antagonists, dose response, cell-based, HEK293, CRE-luciferase reporter, cherry pick, set 2 (AID 743343).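 Further: transfected cells were stimulated with diluted bursicon conditioned medium after compound addition.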 Format: functional.
Experiment [12] has as its target T1, Heat shock factor protein 1 (Mus musculus, UniProt P38532).
T1 sequence (P38532 whole entry): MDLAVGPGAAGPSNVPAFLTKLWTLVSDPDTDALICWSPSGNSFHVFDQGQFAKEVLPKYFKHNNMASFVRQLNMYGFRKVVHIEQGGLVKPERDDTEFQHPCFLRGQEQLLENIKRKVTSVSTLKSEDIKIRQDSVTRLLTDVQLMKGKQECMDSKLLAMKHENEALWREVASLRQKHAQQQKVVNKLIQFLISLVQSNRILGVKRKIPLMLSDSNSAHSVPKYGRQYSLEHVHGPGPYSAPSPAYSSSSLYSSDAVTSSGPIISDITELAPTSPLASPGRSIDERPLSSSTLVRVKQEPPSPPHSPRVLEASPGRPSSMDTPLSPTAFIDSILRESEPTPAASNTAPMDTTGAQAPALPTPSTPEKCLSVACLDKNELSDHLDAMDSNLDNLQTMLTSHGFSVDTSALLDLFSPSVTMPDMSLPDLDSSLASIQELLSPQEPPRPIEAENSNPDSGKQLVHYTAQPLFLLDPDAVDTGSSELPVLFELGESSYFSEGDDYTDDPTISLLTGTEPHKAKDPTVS
As to the kind of experiment: inhibition of MG132-induced HSE-luciferase signal, confirmation, cell-based, NIH3T3, luminescence, dose retest (AID 2382).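 Further: NIH3T3 fibroblasts with HSF1-driven luciferase reporter stressed by proteasome inhibitor MG132; luminescence from HSF1-driven luciferase expression after 8 hours of MG132 stress.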 Format: functional.

The subject of experiment [13] is Jurkat. As to the kind of experiment: antigen receptor-induced NF-kB inhibitors, dose response, Jurkat, luciferase reporter, luminescence, B- and T-cell (AID 489004).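 Further: NF-kB luciferase reporter Jurkat cells stimulated with PMA plus ionomycin.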 Format: functional, cell-based. The settings on record: Homo sapiens. Background: In a reporter assay the amount or activity of a reporter protein is the signal.
Experiment [14] can be described thus: control 3'UTR Renilla luciferase suppression, dose response, counter-screen for Shn3 inhibitor project, cell-based, Clone20-Shn3RL, cherry-picked (AID 624133). Format: functional. (In general: A counterscreen serves to expose hits that act by an unwanted route or on another target.)
Experiment [15] can be described thus: HepG2 cell cytotoxicity, dose response, cytotoxicity control for Shn3 inhibitor project, CellTiter-Glo, cherry-picked (AID 624134). Format: functional, cell-based.
In experiment [16] the target is T2, Protein skinhead-1 (Caenorhabditis elegans, UniProt P34707).
T2 sequence (P34707 whole entry): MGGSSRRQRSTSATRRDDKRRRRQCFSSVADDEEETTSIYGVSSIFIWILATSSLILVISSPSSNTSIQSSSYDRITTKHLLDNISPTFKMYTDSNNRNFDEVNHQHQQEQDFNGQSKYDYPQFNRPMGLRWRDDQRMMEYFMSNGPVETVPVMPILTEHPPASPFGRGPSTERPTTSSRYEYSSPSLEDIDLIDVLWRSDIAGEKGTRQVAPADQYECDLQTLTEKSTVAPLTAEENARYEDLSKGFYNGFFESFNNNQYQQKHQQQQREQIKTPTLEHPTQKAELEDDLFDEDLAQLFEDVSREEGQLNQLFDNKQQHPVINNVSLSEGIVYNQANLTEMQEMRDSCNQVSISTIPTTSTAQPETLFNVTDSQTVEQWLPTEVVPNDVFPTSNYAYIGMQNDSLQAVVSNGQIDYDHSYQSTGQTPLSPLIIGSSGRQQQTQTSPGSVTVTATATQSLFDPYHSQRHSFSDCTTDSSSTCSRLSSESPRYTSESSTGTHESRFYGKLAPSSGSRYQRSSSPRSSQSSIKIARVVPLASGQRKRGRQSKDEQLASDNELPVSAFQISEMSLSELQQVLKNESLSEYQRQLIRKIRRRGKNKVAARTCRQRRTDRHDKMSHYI
Type of experiment: functional.

The nature of experiment [17]: A549 cell cytotoxicity, dose response, cytotoxicity control, plate reader, cherry-pick, antagonist series (AID 743412). Type of experiment: functional, cell-based.
Experiment [18] in a line: MC4R antagonists, dose response, counter-screen for LGR2 antagonist project, cell-based, plate reader, cherry pick (AID 743444).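 Further: transfected HEK 293 cells stimulated with alpha-MSH peptide; potency of inhibitors of the alpha-MSH evoked signal.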 Type of experiment: functional.
A short description of experiment [19]: Luminescence-based counterscreen assay for KLF5 inhibitors: dose response cell-based high throughput screening assay to identify cytotoxic compounds using the IEC-6 intestinal epithelial cell line. [Related pubchem assays: 1700 (Primary screen.), 1834 (Confirmation screen.), 1858 (Summary AID.), 1905 (Counterscreen.)]. Format: functional.
Experiment [20] concerns BJ. As to the kind of experiment: cytotoxicity toward BJ-TERT-LT-ST fibroblasts, dose response, cell-based, RAS-independent, luminescence (AID 1935).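 Further: BJ fibroblasts immortalized with TERT plus LT and ST oncogenes.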 Type of experiment: functional. The settings on record: Homo sapiens.
Experiment [21] in a line: cytotoxicity in HEK-293T NF-kB-Luc cells, dose response, cytotoxicity control for B/T-cell NF-kB inhibitor project, cell-based, uHTS hits (AID 489019).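 Further: IC50 reflects cytotoxicity as loss of cell viability.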 Format: functional.
The nature of experiment [22]: Luminescence Cell-Based Dose Confirmation HTS to Identify Inhibitors of Platelet Dense Granule Release. [Related pubchem assays: 1663 (Primary HTS), 1678 (Summary of Project)]. Type of experiment: functional.

Molecules are shown by their SMILES. The source made the active and inactive calls. Some results are limits rather than exact numbers.

What is called AC50 is the concentration at which the activity in the assay is half-maximal. Usually EC50 stands for the concentration giving half of the maximal effect. One may read the IC50 as the point on the concentration scale where inhibition reaches its midpoint. For the molecule `Cc1ccc(C)c(NS(=O)(=O)c2ccc(-c3cnc(C4CC4)o3)cc2)c1`, the AC50 in experiment [1] was < 0.16 µM (active); in experiment [2], 8.44 µM (inconclusive). Also, the EC50 in experiment [3] is < 0.12 µM (active); in experiment [4] it was 0.298 µM (active); in [5], 0.15 µM (active); in experiment [6], < 0.104 µM (active). Further, the IC50 in [7] was 54 µM (inactive).

Turning to `c1ccc(-c2ccc(-c3nc(-c4ccccn4)no3)cc2)cc1`, the AC50 in experiment [8] was 4.67 µM (active); in [9], 6.22 µM (active); in [10], 3.75 µM (active); in experiment [11], 0.236 µM (active); in experiment [14] it was 32.7 µM (active); in [15], 5.26 µM (active). Also, the concentration at half-maximal activity (AC50) in [17] was 5.48 µM (active); in experiment [18] it was 0.261 µM (active). The 50% effective concentration (EC50) is 3.27 µM (active) in experiment [3]; < 0.16 µM (active) in experiment [12]; 1.69 µM (active) in experiment [4]; 3.64 µM (active) in [5]; > 133 µM (inactive) in experiment [6]; 9.38 µM (inconclusive) in experiment [20]. In [22], the EC50 is 0.189 µM (active). Besides, the IC50 in experiment [13] is 1.17 µM (active); in [16], > 100 µM (inactive); in experiment [19], 9.09 µM (active); in experiment [21], > 80 µM (inactive).

Values taken from ChEMBL document CHEMBL1201862, “PubChem BioAssay data set” (2004).
